Test results reported in US20140357512A1, “HISTONE DEACETYLASE (HDAC) BIOMARKERS IN MULTIPLE MYELOMA” (priority 2013, published 2014).

Test system: human myeloma cell line MM.1S
Assay: SILAC acetylated-lysine peptide profiling, HDAC inhibitor vs DMSO (light/heavy ratio)
Type: cell-based
Excerpt: An embodiment of the invention comprises utilizing the SILAC method in order to quantitate changes in protein expression between two or more populations of cells. The SILAC method is a technique based on mass spectrometry that detects differences in protein abundance among samples using non-radioactive isotopic labeling. The SILAC method is known in the art, and described in detail in Ong et al., “Stable Isotope Labeling by Amino Acids in Cell Culture, SILAC, as a Simple and Accurate Approach to Expression Proteomics”, Molecular & Cellular Proteomics, vol. 1, pp. 376-386 (2002), which is incorporated herein by reference in its entirety.
Briefly, the SILAC method involves growing two populations of cells in cell culture. The first population of cells is grown in growth media containing normal amino acids (“normal media”). The second population of cells is grown in media lacking a standard essential amino acid (such as lysine), but is then supplemented with a non-radioactive, isotopically labeled form of that essential amino acid (such as lysine labeled with ^13C atoms, rather than normal ^12C atoms), which is called “heavy media”. When the two populations of cells are each growing in the medium, they incorporate the amino acids into all of their proteins. The growth of cells maintained in the heavy media is no different from that in normal media. All peptides containing the heavy amino acids are heavier than their normal counterparts. The cells from each of the two populations of cells are lysed. The lysates from each of the two cell populations are then combined. The combined cell lysates are then analyzed by mass spectrometry. Pairs of chemically identical peptides of different stable isotope composition can be differentiated in a mass spectrometer due to their difference in mass. The ratio of peak intensities in the mass spectrum for such peptide pairs reflects the abundance ratio for the two proteins.
This example describes SILAC studies that were performed to compare the effects of three different HDAC inhibitors (Compound A, Compound B, and tubastatin A) to a control on a human multiple myeloma cell line. The HDAC inhibitors were also compared amongst themselves to determine differences in their effects.
A human myeloma cell line MM.1S was grown using either ^12C (light) or ^13C (heavy) lysine containing culture medium. The “heavy” cells were treated with DMSO as the control, and the “light” cells were treated with a single HDAC inhibitor at 37° C. for 6 hours. The heavy and light cells were lysed, and the lysates were mixed in 1:1 ratio and digested with the protease trypsin. The acetylated lysine containing peptides (due to the action of the HDAC inhibitor) in the digested peptide pool were captured by a non-specific anti-acetylated lysine antibody cocktail (the antibodies identify both light and heavy acetylated peptides), and subjected to mass spectrometry analysis in order to identify thousands of individual peptides.
Thousands of peptides were identified in pairs (^12C and ^13C) due to their known mass differences. The amino acid sequence and quantitative ratio (Light/Heavy) of a given peptide in two differentially treated cell lysates were then determined and annotated with their possible protein (gene) sources.
As stated above, three HDAC inhibitors (Compound A, Compound B, and Tubastatin A) were used. Thus, the SILAC method was performed three times, with a different HDAC inhibitor compared to a control each time. Accordingly, there are three pairs of quantitative data in the table below, i.e., Compound A:DMSO, Compound B:DMSO, and Tubastatin A:DMSO. A cut-off of 1.30 fold of change (increase or decrease) was then used to determine “changed” or “+” in the table, and any peptides with a fold of change less than 1.3 fold were determined to be “unchanged” or “0” in the table. Those peptides that were not identified were marked as “NA” in the table. […]

CN1CCc2c(c3ccccc3n2Cc2ccc(C(=O)NO)cc2)C1 [Tub A]
light to heavy ratio (L/H ratio) of acetylated peptide SNPSEVVEFTTCPDK(ac)PGIPVKPSVK (SEQ ID NO: 336) (Isoform 2 of Fibronectin type-III domain-containing protein 3A [507], FNDC3A, drug:DMSO): 0.00 log 2 | light to heavy ratio (L/H ratio) of acetylated peptide LIAGNK(ac)PVSFLTAQQLQQLQQQGQATQVR (SEQ ID NO: 512) (Isoform 2 of Nuclear factor related to kappa-B-binding protein [1262], gene NFRKB, inhibitor:DMSO): 0.00 log 2 | light to heavy ratio (L/H ratio) of acetylated peptide YQQFK(ac)DFQR (SEQ ID NO: 258) (Isoform 2 of Spliceosome RNA helicase DDX39B [349], SNORD84, DDX39B, drug:DMSO): −0.38 log 2 | light to heavy ratio (L/H ratio), log 2 scale, acetylated peptide LEPLK(ac)PLK (SEQ ID NO: 772) (Isoform 3 of Proline-rich protein 12 [1223], gene PRR12, drug:DMSO): 0.00 | light to heavy ratio (L/H ratio), log 2 scale, acetylated peptide DQTK(ac)SIVEK (SEQ ID NO: 810) (Isoform 3 of Reticulon-3 [217], gene RTN3, drug:DMSO): 0.00 | light to heavy ratio (L/H ratio) of acetylated peptide VQDGLSDIAEK(ac)FLK (SEQ ID NO: 326) (Isoform 5 of Transcriptional regulator ATRX [812], ATRX, drug:DMSO): 0.00 log 2 | light to heavy ratio (L/H ratio) of acetylated peptide K(ac)SSETLR (SEQ ID NO: 601) (Isoform CNPI of 23-cyclic-nucleotide 3-phosphodiesterase [177], gene CNP, inhibitor:DMSO): 0.00 log 2 | light to heavy ratio (L/H ratio) of acetylated peptide MVAAAK(ac)YAR (SEQ ID NO: 324) (Isoform Heart of ATP synthase subunit gamma mitochondrial [55], ATP5C1, drug:DMSO): 0.00 log 2 | light to heavy ratio (L/H ratio) of acetylated peptide VPNDK(ac)YYGAQTVR (SEQ ID NO: 625) (Isoform Mitochondrial of Fumarate hydratase mitochondrial [66], gene FH, inhibitor:DMSO): 0.00 log 2 | light to heavy ratio (L/H ratio) of acetylated peptide APQCLGK(ac)FIEIAAR (SEQ ID NO: 338) (Isoform Short of Heterogeneous nuclear ribonucleoprotein U [546], HNRNPU, drug:DMSO): 0.00 log 2 | light to heavy ratio (L/H ratio) of acetylated peptide LLEQYK(ac)EESK (SEQ ID NO: 302) (Isoform Short of Heterogeneous nuclear ribonucleoprotein U [651], HNRNPU, drug:DMSO): −0.57 log 2 | light to heavy ratio (L/H ratio) of acetylated peptide, log 2 scale (K(ac)HPDASVNFSEFSK (SEQ ID NO: 164), Similar to nonhistone chromosomal protein HMG-1 [30], HMGB1P4): −0.39 | light to heavy ratio (L/H ratio) of acetylated peptide, log 2 scale (K(ac)TFEINPR (SEQ ID NO: 171), Endoplasmin [683], HSP90B1): −0.73 | light to heavy ratio (L/H ratio) of acetylated peptide, log 2 scale (K(ac)YEDICPSTHNMDVPNIK (SEQ ID NO: 152), Eukaryotic translation initiation factor 5A-2 [68], EIF5A2): −0.56 | light to heavy ratio (L/H ratio) of acetylated peptide, log 2 scale (KLPK(ac)NEPQNATGAPGR (SEQ ID NO: 198), Ras-related protein Rab-5C [184], RAB5C): 0.38 | light to heavy ratio (L/H ratio), log 2 scale, acetylated peptide (ac)ASPSLERPEK(ac)GAGK (SEQ ID NO: 801) (KRR1 small subunit processome component homolog [11], gene KRR1, drug:DMSO): 0.00 | light to heavy ratio (L/H ratio) of acetylated peptide IVADK(ac)DYSVTANSK (SEQ ID NO: 317) (L-lactate dehydrogenase B chain [82], LDHB, drug:DMSO): 0.51 log 2 | L/H ratio of acetylated peptide (LAK(ac)LSDGVAVLK (SEQ ID NO: 484), 60 kDa heat shock protein mitochondrial [396], HSPD1): 0.00 log 2 | light to heavy ratio (L/H ratio) of acetylated peptide, log 2 scale (LENK(ac)MEGIGLK (SEQ ID NO: 131), PRA1 family protein 3 [151], ARL6IP5): 0.67 | light to heavy ratio (L/H ratio) of acetylated peptide, log 2 scale (LIK(ac)VHLDK (SEQ ID NO: 215), 40S ribosomal protein S7 [155], RPS7): −0.50 | light to heavy ratio (L/H ratio) of acetylated peptide, log 2 scale (LIYDTK(ac)GR (SEQ ID NO: 213), 40S ribosomal protein S4 X isoform [106], RPS4X): −0.40 | L/H ratio of acetylated peptide IHLEIK(ac)QLNR (SEQ ID NO: 57) (LMAN1 [346], log 2 scale, drug vs DMSO): −0.56 | L/H ratio of acetylated peptide LYK(ac)EELEQTYHAK (SEQ ID NO: 4) (LMNB1 [261], log 2 scale, drug vs DMSO): 0.46 | L/H ratio of acetylated peptide LYKEELEQTYHAK(ac)LENAR (SEQ ID NO: 58) (LMNB1 [271], log 2 scale, drug vs DMSO): −0.73 | light to heavy ratio (L/H ratio) of acetylated peptide, log 2 scale (LNEQK(ac)LAQLEEAK (SEQ ID NO: 133), ATP synthase subunit b mitochondrial [131], ATP5F1): 0.72 | L/H ratio of acetylated peptide GFGYK(ac)GSCFHR (SEQ ID NO: 59) (LOC390956 [71], log 2 scale, drug vs DMSO): −0.45 | light to heavy ratio (L/H ratio) of acetylated peptide, log 2 scale (LSLDK(ac)VFR (SEQ ID NO: 226), Stomatin-like protein 2 [145], STOML2): −0.41 | light to heavy ratio (L/H ratio) of acetylated peptide, log 2 scale (LTALDYHNPAGFNCK(ac)DETEFR (SEQ ID NO: 137), UPF0568 protein C14orf166 [20], C14orf166): 0.41 | light to heavy ratio (L/H ratio) of acetylated peptide, log 2 scale (LTEAKPVDK(ac)VK (SEQ ID NO: 221), cDNA FLJ60124 highly similar to Mitochondrial dicarboxylate carrier [142], SLC25A10): −0.50 | L/H ratio of acetylated peptide (LTLSALLDGK(ac)NVNAGGHK (SEQ ID NO: 466), Voltage-dependent anion-selective channel protein 1 [266], VDAC1): 0.00 log 2 | L/H ratio of acetylated peptide (LVSEK(ac)LASYQAAR (SEQ ID NO: 476), Isoform 2 of Myc proto-oncogene protein [163], MYC): 0.00 log 2 | light to heavy ratio (L/H ratio) of acetylated peptide AVLK(ac)FAAATGATPIAGR (SEQ ID NO: 262) (Laminin receptor-like protein LAMRL5 [89], SNORA6, RPSAP15, SNORA62, RPSA, drug:DMSO): −0.53 log 2 | light to heavy ratio (L/H ratio) of acetylated peptide SYVSEK(ac)DVTSAK (SEQ ID NO: 628) (Leucine-rich PPR motif-containing protein mitochondrial [1332], gene LRPPRC, inhibitor:DMSO): 0.00 log 2 | L/H ratio of acetylated peptide ICCQFDFK(ac)R (SEQ ID NO: 60) (MAN2A1 [373], log 2 scale, drug vs DMSO): −0.69 | L/H ratio of acetylated peptide YLTNQK(ac)NSNSK(ac)NDR (SEQ ID NO: 17) (MEAF6 [69:74], log 2 scale, drug vs DMSO): 0.58 | light to heavy ratio (L/H ratio) of acetylated peptide, log 2 scale (MKENQK(ac)HIYYITGETK (SEQ ID NO: 169), Isoform 2 of Heat shock protein HSP 90-alpha [611], HSP90AA1): −0.46 | L/H ratio of acetylated peptide TLVLSDK(ac)HSPQK(ac)K (SEQ ID NO: 5) (MLL3 [2809:2814], log 2 scale, drug vs DMSO): 0.67 | light to heavy ratio (L/H ratio) of acetylated peptide, log 2 scale (MPTPVIK(ac)AFGILK (SEQ ID NO: 154), Isoform Mitochondrial of Fumarate hydratase mitochondrial [94], FH): −0.55 | L/H ratio of acetylated peptide LNK(ac)DQWEER (SEQ ID NO: 10) (MSN [165], log 2 scale, drug vs DMSO): −0.38 | light to heavy ratio (L/H ratio) of acetylated peptide LSLLSK(ac)FR (SEQ ID NO: 564) (Mitochondrial trifunctional protein beta subunit (Fragment) [100], gene HADHB, inhibitor:DMSO): 0.00 log 2 | light to heavy ratio (L/H ratio) of acetylated peptide EIFQNEK(ac)R (SEQ ID NO: 288) (NAD(P) transhydrogenase mitochondrial [70], NNT, drug:DMSO): 0.55 log 2 | light to heavy ratio (L/H ratio) of acetylated peptide AISPDK(ac)DNFYFDVK (SEQ ID NO: 284) (NAD(P) transhydrogenase mitochondrial [403], NNT, drug:DMSO): 0.40 log 2 | light to heavy ratio (L/H ratio) of acetylated peptide, log 2 scale (NATVGQSVLNIK(ac)YK (SEQ ID NO: 194), Peroxisome biogenesis factor 2 [84], PEX2): 0.51 | light to heavy ratio (L/H ratio) of acetylated peptide, log 2 scale (NCMTDLLAK(ac)LEAK (SEQ ID NO: 201), Receptor expression-enhancing protein 5 [25], REEP5): 0.49
